According to US20140329863A1 (priority 2011, published 2014):

Test system: PrP^Sc in dividing ScN2a-cl3 cells
Test: not given
Assay type: cell-based, mouse
Set-up: Dividing ELISA pEC50 (μM) 1st Expt. / Dividing ELISA pEC50 (μM) 2nd Expt. / Dividing ELISA pEC50 (μM) 3rd Expt. / Dividing ELISA pEC50 (μM) Mean: unit not given here
Settings: ScN2a-cl3 dividing cells; 1st determination

Compound | Dividing ELISA pEC50 (μM) 1st Expt.
COc1ccc(-c2csc(Nc3ccc(C)cn3)n2)cc1 [compound 21, [4-(4-Methoxyphenyl)-thiazol-2-yl]-(5-methylpyridin-2-yl)-amine] | 5.30
COc1ccccc1-c1csc(Nc2ccc(C)cn2)n1 [compound 22, [4-(2-Methoxyphenyl)-thiazol-2-yl]-(5-methylpyridin-2-yl)-amine] | >4.5
Cc1ccc(Nc2nc(-c3ccc(-c4ccccn4)s3)cs2)nc1 [compound 26, (5-Methylpyridin-2-yl)-[4-(5-pyridin-2-yl-thiophen-2-yl)-thiazol-2-yl]-amine] | 5.80
c1ccc(-c2csc(Nc3cc4ccccc4cn3)n2)cc1 [compound 33, Isoquinolin-3-yl-(4-phenylthiazol-2-yl)-amine] | 5.69

Same assay, conditions: ScN2a-cl3 dividing cells; 2nd determination

Compound | Dividing ELISA pEC50 (μM) 2nd Expt.
COc1ccc(-c2csc(Nc3ccc(C)cn3)n2)cc1 [compound 21, [4-(4-Methoxyphenyl)-thiazol-2-yl]-(5-methylpyridin-2-yl)-amine] | 5.72
COc1ccccc1-c1csc(Nc2ccc(C)cn2)n1 [compound 22, [4-(2-Methoxyphenyl)-thiazol-2-yl]-(5-methylpyridin-2-yl)-amine] | 4.58
Cc1ccc(Nc2nc(-c3ccc(-c4ccccn4)s3)cs2)nc1 [compound 26, (5-Methylpyridin-2-yl)-[4-(5-pyridin-2-yl-thiophen-2-yl)-thiazol-2-yl]-amine] | 6.06
c1ccc(-c2csc(Nc3cc4ccccc4cn3)n2)cc1 [compound 33, Isoquinolin-3-yl-(4-phenylthiazol-2-yl)-amine] | 5.55

Same assay, conditions: ScN2a-cl3 dividing cells; 3rd determination

Compound | Dividing ELISA pEC50 (μM) 3rd Expt.
COc1ccc(-c2csc(Nc3ccc(C)cn3)n2)cc1 [compound 21, [4-(4-Methoxyphenyl)-thiazol-2-yl]-(5-methylpyridin-2-yl)-amine] | 5.66
COc1ccccc1-c1csc(Nc2ccc(C)cn2)n1 [compound 22, [4-(2-Methoxyphenyl)-thiazol-2-yl]-(5-methylpyridin-2-yl)-amine] | 4.52
Cc1ccc(Nc2nc(-c3ccc(-c4ccccn4)s3)cs2)nc1 [compound 26, (5-Methylpyridin-2-yl)-[4-(5-pyridin-2-yl-thiophen-2-yl)-thiazol-2-yl]-amine] | 5.91
c1ccc(-c2csc(Nc3cc4ccccc4cn3)n2)cc1 [compound 33, Isoquinolin-3-yl-(4-phenylthiazol-2-yl)-amine] | 5.37

Same assay, conditions: ScN2a-cl3 dividing cells; mean of three determinations

Compound | Dividing ELISA pEC50 (μM) Mean
COc1ccc(-c2csc(Nc3ccc(C)cn3)n2)cc1 [compound 21, [4-(4-Methoxyphenyl)-thiazol-2-yl]-(5-methylpyridin-2-yl)-amine] | 5.56
Cc1ccc(Nc2nc(-c3ccc(-c4ccccn4)s3)cs2)nc1 [compound 26, (5-Methylpyridin-2-yl)-[4-(5-pyridin-2-yl-thiophen-2-yl)-thiazol-2-yl]-amine] | 5.92
c1ccc(-c2csc(Nc3cc4ccccc4cn3)n2)cc1 [compound 33, Isoquinolin-3-yl-(4-phenylthiazol-2-yl)-amine] | 5.53

Same assay, conditions: read-out: Dividing ELISA EC50 (μM) 1st Expt.; ScN2a-cl3 dividing cells; 1st determination

Compound | EC50
COc1ccc(-c2csc(Nc3ccccn3)n2)cc1OC [compound 6, [4-(3,4-dimethoxyphenyl)-thiazol-2-yl]pyridin-2-yl-amine] | 11.8 µM
COc1ccc(-c2csc(Nc3ccc(C)cn3)n2)cc1 [compound 21, [4-(4-Methoxyphenyl)-thiazol-2-yl]-(5-methylpyridin-2-yl)-amine] | 5.02 µM
COc1ccccc1-c1csc(Nc2ccc(C)cn2)n1 [compound 22, [4-(2-Methoxyphenyl)-thiazol-2-yl]-(5-methylpyridin-2-yl)-amine] | > 32 µM
Cc1ccc(Nc2nc(-c3ccccn3)cs2)nc1 [compound 24, (5-Methylpyridin-2-yl)-(4-pyridin-2-yl-thiazol-2-yl)-amine] | 1.62 µM
Cc1ccc(Nc2nc(-c3ccc(-c4ccccn4)s3)cs2)nc1 [compound 26, (5-Methylpyridin-2-yl)-[4-(5-pyridin-2-yl-thiophen-2-yl)-thiazol-2-yl]-amine] | 1.58 µM
c1ccc(-c2csc(Nc3cc4ccccc4cn3)n2)cc1 [compound 33, Isoquinolin-3-yl-(4-phenylthiazol-2-yl)-amine] | 2.06 µM

Same assay, conditions: read-out: Dividing ELISA EC50 (μM) 2nd Expt.; ScN2a-cl3 dividing cells; 2nd determination

Compound | EC50
COc1ccc(-c2csc(Nc3ccccn3)n2)cc1OC [compound 6, [4-(3,4-dimethoxyphenyl)-thiazol-2-yl]pyridin-2-yl-amine] | 6.47 µM
COc1ccc(-c2csc(Nc3ccc(C)cn3)n2)cc1 [compound 21, [4-(4-Methoxyphenyl)-thiazol-2-yl]-(5-methylpyridin-2-yl)-amine] | 1.89 µM
COc1ccccc1-c1csc(Nc2ccc(C)cn2)n1 [compound 22, [4-(2-Methoxyphenyl)-thiazol-2-yl]-(5-methylpyridin-2-yl)-amine] | 26.1 µM
Cc1ccc(Nc2nc(-c3ccccn3)cs2)nc1 [compound 24, (5-Methylpyridin-2-yl)-(4-pyridin-2-yl-thiazol-2-yl)-amine] | 0.507 µM
Cc1ccc(Nc2nc(-c3ccc(-c4ccccn4)s3)cs2)nc1 [compound 26, (5-Methylpyridin-2-yl)-[4-(5-pyridin-2-yl-thiophen-2-yl)-thiazol-2-yl]-amine] | 0.879 µM
c1ccc(-c2csc(Nc3cc4ccccc4cn3)n2)cc1 [compound 33, Isoquinolin-3-yl-(4-phenylthiazol-2-yl)-amine] | 2.85 µM

Same assay, conditions: read-out: Dividing ELISA EC50 (μM) 3rd Expt.; ScN2a-cl3 dividing cells; 3rd determination

Compound | EC50
COc1ccc(-c2csc(Nc3ccccn3)n2)cc1OC [compound 6, [4-(3,4-dimethoxyphenyl)-thiazol-2-yl]pyridin-2-yl-amine] | 6.38 µM
COc1ccc(-c2csc(Nc3ccc(C)cn3)n2)cc1 [compound 21, [4-(4-Methoxyphenyl)-thiazol-2-yl]-(5-methylpyridin-2-yl)-amine] | 2.19 µM
COc1ccccc1-c1csc(Nc2ccc(C)cn2)n1 [compound 22, [4-(2-Methoxyphenyl)-thiazol-2-yl]-(5-methylpyridin-2-yl)-amine] | 30.2 µM
Cc1ccc(Nc2nc(-c3ccccn3)cs2)nc1 [compound 24, (5-Methylpyridin-2-yl)-(4-pyridin-2-yl-thiazol-2-yl)-amine] | 0.449 µM
Cc1ccc(Nc2nc(-c3ccc(-c4ccccn4)s3)cs2)nc1 [compound 26, (5-Methylpyridin-2-yl)-[4-(5-pyridin-2-yl-thiophen-2-yl)-thiazol-2-yl]-amine] | 1.22 µM
c1ccc(-c2csc(Nc3cc4ccccc4cn3)n2)cc1 [compound 33, Isoquinolin-3-yl-(4-phenylthiazol-2-yl)-amine] | 4.32 µM

Same assay, conditions: read-out: Dividing ELISA EC50 (μM) Mean; ScN2a-cl3 dividing cells; mean of three determinations

Compound | EC50
COc1ccc(-c2csc(Nc3ccccn3)n2)cc1OC [compound 6, [4-(3,4-dimethoxyphenyl)-thiazol-2-yl]pyridin-2-yl-amine] | 8.22 µM
COc1ccc(-c2csc(Nc3ccc(C)cn3)n2)cc1 [compound 21, [4-(4-Methoxyphenyl)-thiazol-2-yl]-(5-methylpyridin-2-yl)-amine] | 3.03 µM
COc1ccccc1-c1csc(Nc2ccc(C)cn2)n1 [compound 22, [4-(2-Methoxyphenyl)-thiazol-2-yl]-(5-methylpyridin-2-yl)-amine] | > 29 µM
Cc1ccc(Nc2nc(-c3ccccn3)cs2)nc1 [compound 24, (5-Methylpyridin-2-yl)-(4-pyridin-2-yl-thiazol-2-yl)-amine] | 0.86 µM
Cc1ccc(Nc2nc(-c3ccc(-c4ccccn4)s3)cs2)nc1 [compound 26, (5-Methylpyridin-2-yl)-[4-(5-pyridin-2-yl-thiophen-2-yl)-thiazol-2-yl]-amine] | 1.23 µM
c1ccc(-c2csc(Nc3cc4ccccc4cn3)n2)cc1 [compound 33, Isoquinolin-3-yl-(4-phenylthiazol-2-yl)-amine] | 3.08 µM

Test system: not given
Test: not given
Settings: not given

Compound | melting point
COc1ccc(-c2csc(Nc3ccccn3)n2)cc1OC [compound 6, [4-(3,4-dimethoxyphenyl)-thiazol-2-yl]pyridin-2-yl-amine] | 211 to 214 °C
COc1ccc(-c2csc(Nc3ccc(C)cn3)n2)cc1 [compound 21, [4-(4-Methoxyphenyl)-thiazol-2-yl]-(5-methylpyridin-2-yl)-amine] | 246 to 248 °C
COc1ccccc1-c1csc(Nc2ccc(C)cn2)n1 [compound 22, [4-(2-Methoxyphenyl)-thiazol-2-yl]-(5-methylpyridin-2-yl)-amine] | 228 to 230 °C
Cc1ccc(Nc2nc(-c3ccccn3)cs2)nc1 [compound 24, (5-Methylpyridin-2-yl)-(4-pyridin-2-yl-thiazol-2-yl)-amine] | 184 to 190 °C
Cc1ccc(Nc2nc(-c3ccc(-c4ccccn4)s3)cs2)nc1 [compound 26, (5-Methylpyridin-2-yl)-[4-(5-pyridin-2-yl-thiophen-2-yl)-thiazol-2-yl]-amine] | 197 to 199 °C
c1ccc(-c2csc(Nc3cc4ccccc4cn3)n2)cc1 [compound 33, Isoquinolin-3-yl-(4-phenylthiazol-2-yl)-amine] | 265 to 267 °C

Test system: N2a-cl3 cells
Test: cells
Settings: Mus musculus, N2a-cl3, read-out: Dividing Calcein EC50 (μM) Mean (n = 3)

Compound | EC50
COc1ccc(-c2csc(Nc3ccccn3)n2)cc1OC [compound 6, [4-(3,4-dimethoxyphenyl)-thiazol-2-yl]pyridin-2-yl-amine] | > 32 µM
COc1ccc(-c2csc(Nc3ccc(C)cn3)n2)cc1 [compound 21, [4-(4-Methoxyphenyl)-thiazol-2-yl]-(5-methylpyridin-2-yl)-amine] | > 32 µM
COc1ccccc1-c1csc(Nc2ccc(C)cn2)n1 [compound 22, [4-(2-Methoxyphenyl)-thiazol-2-yl]-(5-methylpyridin-2-yl)-amine] | > 32 µM
Cc1ccc(Nc2nc(-c3ccccn3)cs2)nc1 [compound 24, (5-Methylpyridin-2-yl)-(4-pyridin-2-yl-thiazol-2-yl)-amine] | 0.389 µM
Cc1ccc(Nc2nc(-c3ccc(-c4ccccn4)s3)cs2)nc1 [compound 26, (5-Methylpyridin-2-yl)-[4-(5-pyridin-2-yl-thiophen-2-yl)-thiazol-2-yl]-amine] | > 32 µM
c1ccc(-c2csc(Nc3cc4ccccc4cn3)n2)cc1 [compound 33, Isoquinolin-3-yl-(4-phenylthiazol-2-yl)-amine] | > 32 µM

Test system: PrP^Sc in nondividing ScN2a-cl3 cells
Test: not given
Assay type: cell-based, mouse
Settings: read-out: Non-Dividing ELISA EC50 (μM) Mean (n = 3); ScN2a-c13 non-dividing cells; mean n = 3

Compound | EC50
COc1ccc(-c2csc(Nc3ccccn3)n2)cc1OC [compound 6, [4-(3,4-dimethoxyphenyl)-thiazol-2-yl]pyridin-2-yl-amine] | > 32 µM
COc1ccc(-c2csc(Nc3ccc(C)cn3)n2)cc1 [compound 21, [4-(4-Methoxyphenyl)-thiazol-2-yl]-(5-methylpyridin-2-yl)-amine] | > 32 µM
COc1ccccc1-c1csc(Nc2ccc(C)cn2)n1 [compound 22, [4-(2-Methoxyphenyl)-thiazol-2-yl]-(5-methylpyridin-2-yl)-amine] | > 32 µM
Cc1ccc(Nc2nc(-c3ccccn3)cs2)nc1 [compound 24, (5-Methylpyridin-2-yl)-(4-pyridin-2-yl-thiazol-2-yl)-amine] | > 32 µM
Cc1ccc(Nc2nc(-c3ccc(-c4ccccn4)s3)cs2)nc1 [compound 26, (5-Methylpyridin-2-yl)-[4-(5-pyridin-2-yl-thiophen-2-yl)-thiazol-2-yl]-amine] | > 32 µM
c1ccc(-c2csc(Nc3cc4ccccc4cn3)n2)cc1 [compound 33, Isoquinolin-3-yl-(4-phenylthiazol-2-yl)-amine] | > 32 µM
